According to PubChem BioAssay AID588835 (The Scripps Research Institute Molecular Screening Center, 2011):
The source made the active and inactive calls. The rule behind the calls is not given here.

What was measured:
[1] = target: Monoacylglycerol lipase ABHD6 (Mus musculus) (UniProt Q8R2Y0); assay: in situ PREP and ABHD6 off-target inhibition, dose response, selectivity assay for PME-1 inhibitor project, cell-based, fluorescence, gel-based ABPP (AID 588835); conditions: in situ gel-based competitive ABPP
Monoacylglycerol lipase ABHD6 (Mus musculus), sequence (Q8R2Y0 whole entry, looked up): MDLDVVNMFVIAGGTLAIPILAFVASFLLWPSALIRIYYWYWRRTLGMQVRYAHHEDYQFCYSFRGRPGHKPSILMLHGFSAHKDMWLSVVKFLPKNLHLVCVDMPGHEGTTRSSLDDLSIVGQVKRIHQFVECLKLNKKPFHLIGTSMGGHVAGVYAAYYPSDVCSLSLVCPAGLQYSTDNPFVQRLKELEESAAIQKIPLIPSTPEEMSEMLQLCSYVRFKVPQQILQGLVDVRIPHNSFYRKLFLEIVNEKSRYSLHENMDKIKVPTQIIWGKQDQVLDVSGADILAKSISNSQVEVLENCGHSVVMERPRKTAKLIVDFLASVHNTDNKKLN

[2] = target: Prolyl endopeptidase (Mus musculus) (UniProt Q9QUR6); assay: as above; conditions: in situ gel-based competitive ABPP, PREP, IC50, second panel column
Prolyl endopeptidase (Mus musculus), sequence (Q9QUR6 whole entry, looked up): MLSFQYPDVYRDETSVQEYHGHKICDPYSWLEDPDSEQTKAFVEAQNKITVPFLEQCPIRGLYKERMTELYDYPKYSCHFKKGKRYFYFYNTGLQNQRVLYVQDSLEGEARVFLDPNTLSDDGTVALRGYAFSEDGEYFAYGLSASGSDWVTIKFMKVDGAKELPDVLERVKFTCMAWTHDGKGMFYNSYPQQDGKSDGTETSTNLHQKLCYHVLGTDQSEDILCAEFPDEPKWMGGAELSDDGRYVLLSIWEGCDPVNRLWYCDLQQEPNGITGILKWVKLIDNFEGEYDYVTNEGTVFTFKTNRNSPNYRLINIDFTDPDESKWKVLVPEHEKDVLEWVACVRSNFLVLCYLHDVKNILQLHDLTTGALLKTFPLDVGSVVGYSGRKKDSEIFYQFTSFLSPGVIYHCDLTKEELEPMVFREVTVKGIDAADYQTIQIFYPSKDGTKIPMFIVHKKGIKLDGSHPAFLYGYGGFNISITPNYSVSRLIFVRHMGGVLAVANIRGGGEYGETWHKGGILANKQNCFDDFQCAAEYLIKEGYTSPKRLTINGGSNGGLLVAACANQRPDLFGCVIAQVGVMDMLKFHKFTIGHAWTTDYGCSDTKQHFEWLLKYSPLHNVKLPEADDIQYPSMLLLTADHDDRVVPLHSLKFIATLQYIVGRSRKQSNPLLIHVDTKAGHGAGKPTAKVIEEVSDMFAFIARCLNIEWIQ

With `CC[C@@]1(c2ccc(C)cc2)C(=O)N(C(=O)OC(C)C)N1C(=O)OC(C)C` the IC50 [1] was “inactive” and the IC50 [2] was 2.34 µM.
